Measurements: ChEMBL document CHEMBL4138197, “Design, synthesis and pharmacological evaluation of N-(5-chloro-2,4-dihydroxybenzoyl)-(R)-N-arylmethyl-1,2,3,4-tetrahydro-3-isoquinolinecarboxamides as potent Hsp90 inhibitors” (Eur J Med Chem, 2018)
pIC50: −log10 of the molar value.

Experiments:
MDA-MB-231 = assay: Antiproliferative activity against human MDA-MB-231 cells after 72 hrs by SRB assay; assay type: functional, cell-based; details: MDA-MB-231, 72 h
A549 = assay: Antiproliferative activity against human A549 cells after 72 hrs by SRB assay; assay type: functional, cell-based; details: A549, 72 h

SMILES	pIC50 (MDA-MB-231)	pIC50 (A549)
CS(=O)(=O)c1cccc(CNC(=O)[C@H]2Cc3ccccc3CN2C(=O)c2cc(Cl)c(O)cc2O)c1	5.41	< 5.00
O=C(NCc1ccccc1Cl)[C@H]1Cc2ccccc2CN1C(=O)c1cc(Cl)c(O)cc1O	5.77	5.84
NS(=O)(=O)c1ccc(CNC(=O)[C@H]2Cc3ccccc3CN2C(=O)c2cc(Cl)c(O)cc2O)cc1	< 5.00	< 5.00
COc1ccccc1CNC(=O)[C@H]1Cc2ccccc2CN1C(=O)c1cc(Cl)c(O)cc1O	6.02	5.94
COc1ccc(CNC(=O)[C@H]2Cc3ccccc3CN2C(=O)c2cc(Cl)c(O)cc2O)c(OC)c1	5.94	5.85
O=C(NCc1ccc2c(c1)CCO2)[C@H]1Cc2ccccc2CN1C(=O)c1cc(Cl)c(O)cc1O	6.05	5.97
O=C(NCc1ccc(OC(F)(F)F)cc1)[C@H]1Cc2ccccc2CN1C(=O)c1cc(Cl)c(O)cc1O	5.65	5.67
Cc1cccc(CNC(=O)[C@H]2Cc3ccccc3CN2C(=O)c2cc(Cl)c(O)cc2O)c1	5.75	6.02
COc1ccc(CNC(=O)[C@H]2Cc3ccccc3CN2C(=O)c2cc(Cl)c(O)cc2O)cc1OC	5.78	5.77
O=C(NCc1cccc(Cl)c1Cl)[C@H]1Cc2ccccc2CN1C(=O)c1cc(Cl)c(O)cc1O	5.68	5.95
CS(=O)(=O)c1ccc(CNC(=O)[C@H]2Cc3ccccc3CN2C(=O)c2cc(Cl)c(O)cc2O)cc1	6.02	5.58
COc1cccc(CNC(=O)[C@H]2Cc3ccccc3CN2C(=O)c2cc(Cl)c(O)cc2O)c1	5.74	5.81
O=C(NCc1ccccc1)[C@H]1Cc2ccccc2CN1C(=O)c1cc(Cl)c(O)cc1O	5.95	5.78
O=C(NCc1cccc2ccccc12)[C@H]1Cc2ccccc2CN1C(=O)c1cc(Cl)c(O)cc1O	5.62	5.56
O=C(NCc1cccc(Cl)c1)[C@H]1Cc2ccccc2CN1C(=O)c1cc(Cl)c(O)cc1O	5.71	5.74
O=C(NCc1ccc(Cl)c(Cl)c1)[C@H]1Cc2ccccc2CN1C(=O)c1cc(Cl)c(O)cc1O	5.79	5.84
COc1cc(CNC(=O)[C@H]2Cc3ccccc3CN2C(=O)c2cc(Cl)c(O)cc2O)ccc1O	5.67	5.58
COc1cc(CNC(=O)[C@H]2Cc3ccccc3CN2C(=O)c2cc(Cl)c(O)cc2O)cc(OC)c1OC	5.66	5.58
Cc1ccccc1CNC(=O)[C@H]1Cc2ccccc2CN1C(=O)c1cc(Cl)c(O)cc1O	5.84	6.19
O=C(NCc1ccc(Cl)cc1Cl)[C@H]1Cc2ccccc2CN1C(=O)c1cc(Cl)c(O)cc1O	6.02	6.19
N#Cc1ccc(CNC(=O)[C@H]2Cc3ccccc3CN2C(=O)c2cc(Cl)c(O)cc2O)cn1	5.68	5.56

The remaining lines, values ahead:

pIC50 (MDA-MB-231)	pIC50 (A549)	SMILES
6.19	6.30	N#Cc1cccc(CNC(=O)[C@H]2Cc3ccccc3CN2C(=O)c2cc(Cl)c(O)cc2O)c1
6.10	6.19	O=C(NCc1cccc([N+](=O)[O-])c1)[C@H]1Cc2ccccc2CN1C(=O)c1cc(Cl)c(O)cc1O
6.11	6.12	O=C(NCc1ccc(Cl)cc1)[C@H]1Cc2ccccc2CN1C(=O)c1cc(Cl)c(O)cc1O
6.05	5.97	COc1ccc(CNC(=O)[C@H]2Cc3ccccc3CN2C(=O)c2cc(Cl)c(O)cc2O)cc1
7.22	7.00	COC1=C2C[C@@H](C)C[C@H](OC)[C@H](O)[C@@H](C)/C=C(\C)[C@H](OC(N)=O)[C@@H](OC)/C=C\C=C(/C)C(=O)NC(=CC1=O)C2=O [GELDANAMYCIN]
6.46	6.46	N#Cc1ccc(CNC(=O)[C@H]2Cc3ccccc3CN2C(=O)c2cc(Cl)c(O)cc2O)cc1
6.28	6.21	N#Cc1ccc(CNC(=O)[C@H]2Cc3ccccc3CN2C(=O)c2cc(Cl)c(O)cc2O)nc1
6.30	6.05	O=C(NCc1ccco1)[C@H]1Cc2ccccc2CN1C(=O)c1cc(Cl)c(O)cc1O
6.20	6.05	O=C(NCc1ccccn1)[C@H]1Cc2ccccc2CN1C(=O)c1cc(Cl)c(O)cc1O
6.40	6.35	CN(C)c1ccc(CNC(=O)[C@H]2Cc3ccccc3CN2C(=O)c2cc(Cl)c(O)cc2O)cc1
6.09	5.82	O=C(NCc1cccnc1)[C@H]1Cc2ccccc2CN1C(=O)c1cc(Cl)c(O)cc1O
6.40	6.27	O=C(NCc1ccc([N+](=O)[O-])cc1)[C@H]1Cc2ccccc2CN1C(=O)c1cc(Cl)c(O)cc1O
6.15	6.19	O=C(NCc1ccc2c(c1)OCO2)[C@H]1Cc2ccccc2CN1C(=O)c1cc(Cl)c(O)cc1O
6.22	6.28	Cc1ccc(CNC(=O)[C@H]2Cc3ccccc3CN2C(=O)c2cc(Cl)c(O)cc2O)cc1
